Data on 79 molecules can be found in the METLIN SMRT retention time set (Domingo-Almenara et al. 2019).

The data set in a line: gradient 5% acetonitrile 3 min, to 50% in 2 min, to 85% in 15 min, held 3 min, 100 µL/min. The following applies: column: Zorbax Extend-C18 2.1 x 50 mm; eluents: water / acetonitrile, 0.1% formic acid. Summed up:
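Values are retention times taken from adduct peaks that software picked and an analyst inspected. The pure standards were run as mixtures of ~100 molecules on HPLC linked to a quadrupole time-of-flight mass spectrometer, in positive and negative ionization mode. A Zorbax Extend-C18 column (2.1 × 50 mm, 1.8 μm) was used at 100 μL/min with water and acetonitrile, each including 0.1% formic acid.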
For `CCCn1cc(C2=CCN(S(=O)(=O)c3ccc(F)c(Cl)c3)CC2)c2cccnc21`, the RP-LC retention time came out at 1190 s. As for `Cc1cc(C)c2c(n1)SCC(=O)N2CCCC(=O)NCCCN1CC(C)CC(C)C1` (centres undefined), the RP-LC retention time came out at 595 s. With `NC(=O)C1(N2CCCCC2)CCN(C(=O)c2cc3ccc4cccnc4c3[nH]2)CC1` the figure was 574 s. Turning to `Cc1nc(CCNC(=O)Cc2cccs2)no1`, the RP-LC retention time is 646 s.

In turn, `Cc1ccc(NC(=O)C2CCN(C(=O)C3Sc4ccccc4NC3=O)CC2)cc1F` (centres undefined) gave an RP-LC retention time of 804 s.

The molecule `CC1CCN(S(=O)(=O)c2ccc3nn(Cc4c(F)cccc4Cl)c(=O)n3c2)CC1` gave an RP-LC retention time of 1030 s. With `O=C(NCc1ccccc1)C1CCCN(C(=O)C2Sc3ccccc3NC2=O)C1` (centres undefined) the figure was 746 s.

Regarding `COC(=O)c1ccc(C(=O)Nc2nnc(-c3ccc(Br)o3)o2)cc1`, the RP-LC retention time stood at 745 s. With `CCc1ccc(CNc2nc3ccccc3n2CCN(CC)CC)cc1` the figure was 558 s; with `COc1ccc(-c2noc(-c3nnn4c3COC(c3ccc(Cl)cc3)C4)n2)cc1OC` (centres undefined), 1130 s; with `Cc1ccc(-n2nc(N3CCCN(S(=O)(=O)c4ccccc4F)CC3)ccc2=O)cc1C`, 914 s. In the case of `COc1ccc(C2C(C(C)=O)=C(O)C(=O)N2CCCN2CCOCC2)c(OC)c1` (centres undefined), the RP-LC retention time turned out to be 554 s. The molecule `CCn1c(=O)c(N2CCC(C(=O)NCCc3c[nH]c4ccc(C)cc34)CC2)nc2ccccc21` gave an RP-LC retention time of 966 s. The molecule `O=S(=O)(c1cc(F)cc(F)c1)N1CCN(Cc2cccc(F)c2)C2(CCOCC2)C1` displayed an RP-LC retention time of 958 s. On to `COc1ccc(S(=O)(=O)N2CCc3nc(-c4ccc(F)cc4)ncc3C2)cc1`, for which the RP-LC retention time worked out at 1050 s.

As to `O=C(O)CN1C(=O)CN=C(c2ccccn2)c2cc(Cl)ccc21`, the RP-LC retention time worked out at 696 s.

The molecule `CCn1ccc2sc(C)c(C(=O)NCc3c(C)cc(C)cc3C)c2c1=O` came in with an RP-LC retention time of 982 s. In turn, `Cc1nc(N2CCOCC2)c2c(C(=O)NCCCc3ccccc3)c(C)oc2n1` gave an RP-LC retention time of 805 s. For `CCN(CC)C(=O)C1CCN(S(=O)(=O)Cc2ccccc2)CC1`, the RP-LC retention time was 759 s. Molecule `Cc1ccccc1NC(=O)Cn1cnc2nc(N3CCCC(C(=O)NC4CC4)C3)sc2c1=O` (centres undefined) returned an RP-LC retention time of 644 s. In turn, `CCOC(=O)c1ccccc1NC(=O)Cn1cccc(-c2nc(-c3ccccc3)no2)c1=O` returned an RP-LC retention time of 1030 s. The molecule `O=C(Nc1ccccc1)N1CCC2(CC1)N(C1CCCC1)C(=O)CS2=O` (centres undefined) yielded an RP-LC retention time of 692 s.

Take `CCN1CCCn2cc(S(=O)(=O)N(CC)c3ccccc3)cc2C1=O`: the RP-LC retention time was 780 s. Turning to `COc1ccc(NC(=O)Cn2c(=O)c(CCC(=O)NC3CCCC3)nc3ccccc32)c(OC)c1`, the RP-LC retention time was determined as 792 s. With `Cc1nn(C)c(=O)c2cc(S(=O)(=O)NCc3ccccc3Cl)cn12` the figure was 807 s; with `COc1ccc(OC)c(CCNc2nc(-c3ccc(OC)c(OC)c3)no2)c1`, 918 s; with `O=C(c1cccs1)N1CCCC1c1nc(-c2ccc(F)cc2F)no1` (centres undefined), 926 s. `O=C(c1ccsc1)N(CCc1cccs1)C1CC1` gave an RP-LC retention time of 853 s. With `Cc1ccccc1NC(=O)C1CCc2nc(N3CCCCC3)ncc2C1` (centres undefined) the figure was 688 s; with `CC(C)n1c(N2CCCN(C(=O)c3ccncc3)CC2)cc(=O)n(C(C)C)c1=O`, 621 s.

`COc1ccc(-n2c(=O)n(C)c(=O)c3cc(C(=O)Nc4ccc(Cl)cc4)cnc32)cc1` had an RP-LC retention time of 966 s. For `Cc1nc(-c2cccnc2)nc2c1CCC(=O)N2Cc1ccccn1`, the RP-LC retention time came out at 566 s. In the case of `CC(CCc1ccccc1)NC(=O)c1ccccc1NC(=O)C1=CSCCO1` (centres undefined), the RP-LC retention time was determined as 1080 s. In turn, `CCOC(=O)C1CCN(c2cc3c(cc2NC(=O)C(C)C)n(C)c(=O)c(=O)n3C)CC1` gave an RP-LC retention time of 733 s.

The molecule `O=[N+]([O-])c1ccc2c(c1)S(=O)c1ccccc1-2` (centres undefined) returned an RP-LC retention time of 782 s. Molecule `COc1cccc(-c2nc(-c3ccc(S(=O)(=O)N4CCC(C)CC4)cc3)no2)c1` displayed an RP-LC retention time of 1360 s. With `O=C1CCCCC(Cc2ccccc2)(C(=O)O)N1` (centres undefined), the RP-LC retention time is 652 s.

For the molecule `Cc1ccc2c(=O)c3c([nH]c2c1C)CCN(CC(=O)Nc1ccccc1F)C3`, the RP-LC retention time was 612 s. For the molecule `CCNC(=O)C1CCCN(c2nc3ncn(CC(=O)Nc4ccc(F)cc4)c(=O)c3s2)C1` (centres undefined), the RP-LC retention time was 657 s.

Take `O=C(Cc1cccs1)Nc1nnc(-c2ccccc2Cl)s1`: the RP-LC retention time was 845 s. For `CCn1cnc2ccc(-c3noc(-c4ccc(OC)c(OC)c4)n3)cc21`, the RP-LC retention time amounted to 698 s. In turn, `CCOC(=O)c1[nH]c(C)c(CN(Cc2ccc3c(c2)OCO3)C(=O)C2CC2)c1C` returned an RP-LC retention time of 929 s. For the molecule `COc1ccc(S(=O)(=O)N2CCC(CN3CCC(C)CC3)CC2)cc1Cl`, the RP-LC retention time worked out at 692 s. With `O=C(c1cccs1)N1CCCC1c1nc(-c2ccccc2)n[nH]1` (centres undefined), the RP-LC retention time came to 704 s.

The molecule `CC(C)COc1cc(=O)n2c(c1C(=O)NCC1CCCCC1)CCCCC2` gave an RP-LC retention time of 864 s. With `CN1CCCC1c1nc(C2CN(C(=O)c3cccn3C)C2)no1` (centres undefined) the figure was 548 s. In turn, `O=C(Nc1ccc2c(c1)OCO2)c1noc2c1CCCCC2` came in with an RP-LC retention time of 967 s. With `Cc1nc(-c2ccc(OC3CCN(C(=O)c4[nH]nc5c4COc4ccccc4-5)C3)cc2)no1` (centres undefined) the figure was 846 s; with `O=C(Nc1cccc(-c2ccc(N3CCOCC3)nn2)c1)Nc1ccccc1Cl`, 730 s; with `C=CCSc1n[nH]c(-c2cccs2)n1`, 792 s. With `COc1ccccc1NC(=O)Nc1ccc2c(c1)N(S(=O)(=O)c1cccs1)CCC2` the figure was 967 s; with `CN(C)c1ccc(C(=O)NC2CCN(c3cc(-c4ccccc4)[nH]n3)C2)cc1` (centres undefined), 705 s; with `CCCn1c(CCNC(=O)c2ccc(F)c(F)c2)nc2cccnc21`, 683 s. With `CSc1ccc(NC(=O)N2C[C@@H]3C[C@H]2C[C@@H]3NS(=O)(=O)c2ccccc2)cc1` the figure was 856 s.

As for `CC(C)CCNC(=O)C1CCN(c2nccn3nc(-c4cccs4)cc23)CC1`, the RP-LC retention time was 1090 s. With `CC1CCCC(NC(=O)c2cc3sc(Cl)cc3n2C)C1C` (centres undefined) the figure was 1230 s. Molecule `Cc1ccc(S(=O)(=O)N2CCc3c(c(-c4nnc(-c5ccccc5)o4)nn3C)C2)cc1C` displayed an RP-LC retention time of 1020 s. With `CCOc1ccc(C(=O)NC2CCN(c3cc(-c4ccccc4)[nH]n3)C2)cc1` (centres undefined) the figure was 741 s; with `O=C(Cn1ncc2c3ccccc3n(Cc3ccccc3F)c2c1=O)N1CCN(c2ccccn2)CC1`, 699 s; with `Cc1ccc(-c2nnc(Cc3nc(-c4ccc(OC(C)C)cc4)no3)o2)cc1F`, 1190 s. With `Cc1nc2nc(-c3ccc(C(C)(C)C)cc3)nn2c(C)c1CC(=O)N1CCCCC1` the figure was 1040 s. With `COc1ccc(Cl)cc1S(=O)(=O)N1CCCC(C)(C(=O)NCc2ccccc2)C1` (centres undefined) the figure was 981 s; with `Cc1ccc(NC(=O)C2CCCN(S(=O)(=O)c3cc(-c4noc(C5CCC5)n4)cs3)C2)cc1` (centres undefined), 1170 s; with `Cc1ccc(-n2nc(N3CCN(C(=O)Nc4ccc(Cl)cc4)CC3)ccc2=O)cc1`, 894 s.

For `COCC(=O)N1C[C@@H]2C(=O)N(CCc3ccccc3)C(=O)[C@@H]2C1`, the RP-LC retention time was determined as 662 s. With `O=C(c1cccc(N2CCNC(c3ccccc3)C2)n1)N1CCCCC1` (centres undefined) the figure was 615 s; with `CC(=O)Nc1ccc(SCCCC(=O)Nc2cccc(C)n2)nn1`, 562 s; with `Cc1ccc2c(Nc3ccc(S(N)(=O)=O)cc3)c(C(=O)N3CCCCCC3)cnc2n1`, 595 s. With `Cn1c(=O)c2c(ncn2CC(=O)N2CCCn3nc(-c4ccc(C(F)(F)F)cc4)cc3C2)n(C)c1=O` the figure was 763 s.

`COc1ccccc1NC(=O)N1C[C@@H](F)C[C@H]1C(=O)N1CCCCC1` gave an RP-LC retention time of 677 s. With `O=C(NCCCn1nc(-c2ccncc2)ccc1=O)C1c2ccccc2Oc2ccccc21` the figure was 629 s. With `O=C(C1CC1)N1CCc2sc(S(=O)(=O)Nc3ccc(Cl)cc3F)cc2C1` the figure was 887 s; with `N#Cc1ccc(NC(=O)Cc2cn3cc(F)ccc3n2)cc1`, 601 s. With `CSc1cccc(NC(=O)C2CCCN(c3nnc(C)c4c(C)n(-c5ccccc5)nc34)C2)c1` (centres undefined) the figure was 798 s; with `Cc1nc(-c2nc(-c3cccs3)cs2)cn1CC(=O)N1CCN(c2ccccc2)CC1`, 813 s. Molecule `Cc1cc(N2CCC(NS(=O)(=O)c3ccccc3F)C2=O)ccc1F` (centres undefined) showed an RP-LC retention time of 900 s. In the case of `CCc1nnc2nc(N3CCN(C(=O)c4ccccc4)CC3)cc(C)n12`, the RP-LC retention time was determined as 597 s.

As for `CC(=O)N1CCCc2cc(S(=O)(=O)N3CCC(C(=O)NCC4CCCO4)CC3)ccc21` (centres undefined), the RP-LC retention time was 658 s. Molecule `O=c1ccn(-c2cccc(F)c2)nc1-c1nc(-c2ccccc2F)no1` returned an RP-LC retention time of 846 s.
